Where “and” joins values, the source holds several entries; their conditions need not be identical. Equal values may be shown once. Read-outs that look alike come from different tables or passages of the source.
What was measured:
leishmanial tubulin [1] = conditions: reference 8; cited from earlier work
[2] = system: L. donovani axenic amastigotes; assay: Growth inhibition of L. donovani axenic amastigotes (three-day tetrazolium dye assay); assay type: cell-based, Leishmania donovani
Protocol: (§1) 2000, 110, 223-236, incorporated herein by reference.^14
(§2) Determination of the drug susceptibility of parasites and mammalian cells. The susceptibility of Leishmania donovani amastigote-like parasites (WHO designation: MHOM/SD/62/1S-CL2D) to growth inhibition by compounds of interest was measured in a three-day assay using the tetrazolium dye-based CellTiter reagent (Promega) (Werbovetz, K., Brendle, J., and Sackett, D. (1999) Mol. Biochem. Parasitol. 98, 53-65., and Havens, C., Bryant, N., Asher, L., Lamoreaux, L., Perfetto, S., Brendle, J., and Werbovetz, K. (2000) Mol. Biochem. Parasitol. 110, 223-236). The amastigote medium used in this assay is based on the medium mentioned by Joshi et al. (Joshi, M., Dwyer, D. M., and Nakhasi, H. L. (1993) Mol. Biochem. Parasitol. 58, 345-354). Prior to addition of fetal bovine serum to a final concentration of 20%, this amastigote medium contains 15 mM KCl, 115 mM KH2PO4, 10 mM K2HPO4, 0.5 mM MgSO4, 24 mM NaHCO3, a 1-concentration of RPMI-1640 vitamins and amino acids, 2.0 mM L-glutamine, 22 mM D-glucose, 100 units/mL penicillin, 100 ∝g/ml streptomycin, 0.1 mM adenosine, 1 ∝g/mL folate, and 25 mM MES (pH 5.5). Compounds were tested for their activity against bloodstream-form Trypanosoma brucei brucei (MITat 1.2, variant 221) axenically-cultured in HMI-9 medium , H., and Hirumi, K. (1989) J. Parasitol. 75, 985-989.) following the procedure of Ellis et al. (Ellis, J., Fish, W., Sileghem, M., and McOdimba, F. (1993) Vet. Parasitol. 50, 143-149.) with some modifications. Briefly, 100 μL of late log phase parasites were incubated in 96-well plates (Costar) at an initial concentration of 10^5 cells/ml with or without test compounds at 37° C. in a humidified 5% CO2 atmosphere for 72 hours. Twenty-five μL of a 5 mg/mL solution of MTT (prepared in phosphate buffered saline and filter sterilized) was then added to each well and plates were re-incubated at 37° C. as before for 2 h. One hundred ∝L of 20% SDS lysis buffer (prepared in 50% aqueous DMF) was added to each well and plates were incubated as before for an additional 3-4 h. Optical densities were then measured at 570 nm using SpectraMax Plus microplate reader. […] Assessment of the in vitro sensitivity of T. b. brucei Lab 110 EATRO and P. falciparum strains to compounds was performed by methods described in Donkor et al. (Donkor, I., Assefa, H., Rattendi, D., Lane, S., Vargas, M., Goldberg, B., and Bacchi, C. (2001) Eur. J. Med. Chem. 36, 531-538.) and Guan et al. (Guan, J., Kyle, D., Gerena, L., Zhang, Q., Milhous, W., and Lin, A. (2002) J. Med. Chem. 45, 2741-2748).

PC3 cells = assay: Toxicity to PC3 cells (three-day CellTiter assay); assay type: cell-based; conditions: read-out: IC50, PC3 prostate
Protocol: (§3) The toxicity of compounds to J774 murine macrophages and PC3 […] cells was measured in a three-day assay using the CellTiter reagent. […] Macrophages were allowed to adhere for 24 hours, then the medium was removed and replaced with serial dilutions of the test compounds in the DMEM medium mentioned above without phenol red. After 72 hr incubation with the test compounds at 37° C. in a humidified 5% CO2 incubator, cell viability was determined using the CellTiter reagent by adding 20 μL of assay solution to each well. After a 6-7 h incubation at 37° C. to allow for color development, the absorbance of each well at 490 nm was measured in a SpectraMax Pro microplate reader (Molecular Devices). The toxicity of compounds to PC3 cells was assessed in the same manner as for the macrophages, except that the medium used was RPMI 1640 supplemented with 10% heat inactivated fetal calf serum, 2.0 mM L-glutamine, 50 units/mL penicillin, and 50 ∝g/mL streptomycin. IC50 values for the J774 and PC3 assays were determined with the software program SoftMax Pro as described earlier.

P. falciparum W2 strain = assay: microbe, parasite or virus in culture; assay type: cell-based, Plasmodium falciparum
Protocol: as §2

[3] = system: Trypanosoma brucei brucei (MITat 1.2, variant 221); assay: microbe, parasite or virus in culture; assay type: cell-based; conditions: read-out: IC50, T. b. brucei variant 221
Protocol: as §2

leishmanial tubulin [4] = assay type: biochemical; conditions: mean ± SD of at least one duplicate measurement, SD of controls 27.6%
Protocol: as §1
Briefly, the tubulin assembly assays are performed as follows. […] The change in turbidity was measured at 351 nm using the SpectraMax Plus microplate reader immediately after GTP addition at 30° C. (for leishmanial tubulin) or 37° C. (for brain tubulin).

[5] = system: L. donovani promastigotes; assay: Growth inhibition of L. donovani promastigotes; assay type: cell-based, Leishmania donovani; conditions: for IC50: read-out: IC50 vs. L. donovani promastigotes
J774 murine macrophages = assay: Toxicity to J774 macrophages (three-day CellTiter assay); assay type: cell-based
Protocol: as §3

[6] = system: T. b. brucei Lab 110 EATRO; assay: In vitro sensitivity of T. b. brucei Lab 110 EATRO (Coulter counter, two-day); assay type: cell-based, Trypanosoma brucei brucei; conditions: read-out: IC50, T. b. brucei Lab 110 EATRO
Protocol: as §2

P. falciparum D6 strain = assay: In vitro sensitivity of P. falciparum D6 strain (tritiated hypoxanthine uptake); assay type: cell-based, Plasmodium falciparum
Protocol: as §2

[7] = system: L. donovani promastigotes; assay: Flow cytometry of DNA content in L. donovani promastigotes; assay type: cell-based, Leishmania donovani; conditions: 10 μM compound; for effect on cell cycle / DNA content by flow cytometry: 48 hour treatment of promastigotes
Protocol: Flow cytometry and fluorescence cell sorting. Parasites or J774 macrophages were incubated in T25 flasks (3-5 mL final volume) in the appropriate media described earlier for 24-48 h. Cultures contained 1% DMSO (v/v) in the presence or absence of test compounds. Cells were counted using a hemacytometer, then were centrifuged (1000×·g for parasites, 200×·g for macrophages) at 4° C. for 10 min (parasites) or 5 min (macrophages). Cells were resuspended in 150 μL of PBS (0.01 M phosphate, 0.137 M NaCl, and 2.7 mM KCl), then 350 μL of ice-cold methanol was added and the samples were fixed at −20° C. for 2-3 h. Cells were centrifuged as before and resuspended in PBS containing 0.1% TX-100, 5 μg/mL RNase A, and 10 μg/mL propidium iodide for 20-30 min. Centrifugation was repeated, then cells were resuspended in PBS to a final concentration of 5×10^5-10^6/mL and stored at 4° C. until analysis. Fluorescence cell sorting was conducted on a Beckman Coulter Elite flow cytometer.

[8] = literature reference 4; cited from earlier work
[9] = Leishmania donovani, 72 h, Table 4, three-day tetrazolium dye assay, mean ± SD, read-out: IC50, L. donovani axenic amastigotes
[10] = Leishmania donovani, Table 1, mean ± standard deviation of at least two independent measurements, read-out: IC50 vs. L. donovani amastigotes
[11] = Plasmodium falciparum, W2, read-out: IC50, P. falciparum W2 strain
[12] = Trypanosoma brucei, 72 h, Table 4, three-day tetrazolium dye assay
[13] = Mus musculus, J774, Table 4, mean ± SD of at least two independent experiments, read-out: IC50, J774 macrophages
[14] = Plasmodium falciparum, D6, read-out: IC50, P. falciparum D6 strain
[15] = read-out: IC50, J774 macrophages

In the case of `O=[N+]([O-])c1cc(C(F)(F)F)cc([N+](=O)[O-])c1Cl` [Chloralin, chloralin], the “inhibition of leishmanial tubulin polymerization (in words, earlier publication)” value (leishmanial tubulin [1]) is given as “inhibitor of leishmanial tubulin polymerization”.

Compound `CCCCCCN(CCCCCC)c1c([N+](=O)[O-])cc(S(N)(=O)=O)cc1[N+](=O)[O-]` [Compound 17] has an IC50 [2, 9] of 11.7 ± 0.7 µM, an IC50 [2, 10] of 11.7 ± 0.7 µM and an IC50 (PC3 cells; Homo sapiens, PC-3, 72 h) of 11.2 ± 1.3 µM. For the same compound, the IC50 (P. falciparum W2 strain; [11]) was 12 µM, the IC50 [3, 12] was 9.48 ± 1.73 µM and the “% Inhibition of Leishmanial Tubulin Assembly at 20 μM Compound” value (shortened to “% Inhibition”) (leishmanial tubulin [4]) was 48 ± 19%. It also gave an IC50 ([5]; Leishmania donovani) of 12.2 µM, an IC50 (J774 murine macrophages; [13]) of 1.91 ± 0.36 µM and an IC50 ([6]; Trypanosoma brucei, 48 h) of 5.6 µM. The IC50 (P. falciparum D6 strain; [14]) was 10 µM.

With `CCCN(CCC)c1c([N+](=O)[O-])cc(S(=O)(=O)Nc2ccccc2)cc1[N+](=O)[O-]` [Compound 20, N1-Phenyl-3,5-dinitro-N4,N4-di-n-propylsulfonilamide] the “fold more active than 3 against L. donovani axenic amastigotes” value [2] was 13.4 fold, the IC50 ([2]; Leishmania donovani, 72 h, read-out: IC50, L. donovani axenic amastigotes) was 5.03 ± 1.08 µM and the IC50 ([2]; Leishmania donovani, read-out: IC50 vs. L. donovani amastigotes) was 5.41 ± 0.89 µM. For the same compound, the IC50 (PC3 cells; Homo sapiens, PC-3, 72 h) was 41.3 ± 8.5 µM, the IC50 (P. falciparum W2 strain; [11]) was 13 µM and the IC50 ([3]; Trypanosoma brucei, 72 h) was 0.412 ± 0.044 µM. The IC50 ([3]; Trypanosoma brucei) was 0.4 µM, the melting point was 120 °C and the “effect on cell cycle / DNA content by flow cytometry” value [7] was “appearance of parasites containing approximately 4×, 8×, and 16× more DNA”. The “parasite cell density over 48 hours” value ([7]; control cultures doubled approximately three times) was “remained at the same cell density”, the “% Inhibition” value (leishmanial tubulin [4]) was 108 ± 7% and the IC50 ([5]; Leishmania donovani) was 14.7 ± 1 µM. The “fold more active than 3 against promastigotes” value ([5]; relative to oryzalin 3) was 3.0 fold, the IC50 (J774 murine macrophages; Mus musculus, J774, read-out: IC50, J774 macrophages) was 28.3 ± 3.8 µM and the IC50 (J774 murine macrophages; [15]) was 30.8 ± 1.9 µM. It also gave an IC50 ([6]; Trypanosoma brucei, 48 h) of 0.58 µM and an IC50 (P. falciparum D6 strain; [14]) of 11 µM.

In the case of `CCCNS(=O)(=O)c1cc([N+](=O)[O-])c(N(CCC)CCC)c([N+](=O)[O-])c1` [Compound 21, N1-Propyl-3,5-dinitro-N4,N4-di-n-propylsulfonilamide], the IC50 ([2]; read-out: IC50, L. donovani axenic amastigotes) is reported as 54.3 µM and 56.9 µM, the IC50 ([2]; read-out: IC50 vs. L. donovani amastigotes) is reported as 56.9 ± 3.4 µM and the IC50 (PC3 cells; three-day tetrazolium dye assay, mean ± SD) is reported as 40.5 ± 8.6 µM. For the same compound, the IC50 (P. falciparum W2 strain; tritiated hypoxanthine uptake, read-out: IC50, P. falciparum W2 strain) was > 25 µM, the IC50 [3] was 9.2 µM and 8.06 µM and the “% Inhibition” value (leishmanial tubulin [4]) was 97 ± 1%. It also gave an IC50 ([5]; mean ± standard deviation of at least two independent measurements) of 56 ± 2.3 µM, an IC50 (J774 murine macrophages; [15]) of 21.8 ± 2.1 µM and an IC50 ([6]; Coulter counter after two-day incubation) of 3 µM. For the same compound, the IC50 (P. falciparum D6 strain; tritiated hypoxanthine uptake, read-out: IC50, P. falciparum D6 strain) was 13 µM.

In the case of `CCCN(CCC)c1c([N+](=O)[O-])cc(C(F)(F)F)cc1[N+](=O)[O-]` [Trifluralin, trifluralin], the “aqueous solubility (in words)” value [8] is listed as “low solubility”.

With `CCCCN(CCCC)c1c([N+](=O)[O-])cc(S(N)(=O)=O)cc1[N+](=O)[O-]` [Compound 15, 4(dibutylamino)-3,5-dinitrobenzenesulfonamide] the IC50 [2, 9] was 20.1 ± 0.2 µM, the IC50 ([2]; Leishmania donovani, 72 h, unit inferred, three-day tetrazolium dye assay, read-out: IC50, L. donovani axenic amastigotes) was 20.1 ± 0.2 µM and the IC50 [2, 10] was 20.1 ± 0.2 µM. It also gave an IC50 (PC3 cells; Homo sapiens, PC-3, 72 h) of 17.2 ± 2.8 µM, an IC50 (P. falciparum W2 strain; [11]) of 4.3 µM and an IC50 [3, 12] of 2.57 ± 0.7 µM. For the same compound, the IC50 ([3]; Trypanosoma brucei, unit inferred) was 2.57 ± 0.7 µM, the “effect on cell cycle / DNA content by flow cytometry” value [7] was “accumulate in the G2M phase of the cell cycle” and the “% Inhibition” value (leishmanial tubulin [4]) was 89 ± 3%. The IC50 ([5]; Leishmania donovani) was 17.8 ± 2.6 µM, the IC50 (J774 murine macrophages; [13]) was 8.43 ± 0.69 µM and the IC50 (J774 murine macrophages; Mus musculus, J774, table after b111, unit inferred, read-out: IC50, J774 macrophages) was 8.43 ± 0.69 µM. It also gave an IC50 ([6]; Trypanosoma brucei, 48 h) of 1.8 µM and an IC50 (P. falciparum D6 strain; [14]) of 5.1 µM.

From patent US20050227982A1, “Antileishmanial dinitroaniline sulfanomides with activity against parasite tubulin” (priority 2002, published 2005)
